The values that follow come from patent publication US8716266B2, “Use of PKC-iota inhibitors for the treatment of glioma” (University of South Florida, priority 2011, dated 2014).

Series [1] deals with Human glioblastoma cell line U-87 MG. Kind of series: Human glioblastoma U-87 MG subcutaneous xenograft in athymic nude mice, tumor volume. It is filed as in vivo, female athymic nude mice. The source says: The cell injection site was marked.
In general terms: A xenograft is tissue or cells of one species grown in another, often human tumour cells in immunodeficient mice.

The nature of series [2]: Body weight and survival of xenografted mice under ICA-1 treatment.
Experimental: Briefly, nine female athymic nude mice, weighing 17 to 23 grams, were divided into 3 groups: Group 1, mice received human glioblastoma xenografts and were treated with saline controls (n=3); Group 2, mice received human glioblastoma xenografts and were treated with ICA-1 (80 mg/kg/day; 20 μM) immediately after glioma implantation (n=3); Group 3, mice received human glioblastoma xenografts and were treated with ICA-1 (80 mg/kg/day, 20 μM) when the tumor reached 100 mm^3 on day 5 post implantation (n=3).
Human glioblastoma cell line U-87 MG, a commonly-studied human grade IV glioblastoma-astrocytoma, epithelial-like cell line, was injected subcutaneously into right flank (1×10^6 cells/flank in 0.1 ml PBS) of the mice. The cell injection site was marked. After glioblastoma implantation, ICA-1 (80 mg/kg/day; 20 μM) was subcutaneously injected, daily, into and around the tumor/cell injection area of Groups 2 and 3 mice; Group 1 mice was treated with vehicle. Tumor volume was calculated using the following formula: length×width×width×½.
Where [3] appears, read: Group 2: ICA-1 80 mg/kg/day daily from implantation.

Regarding `NC(=O)c1ncn(C2CC(COP(=O)(O)O)C(O)C2O)c1N` (stereo not drawn) [ICA-1, 1H-imidazole-4-carboxamide, 5-amino-1-[2,3-dihydroxy-4-[(phosphonooxy)methyl]cyclopentyl]-[1R-(1α, 2β, 3β, 4α)]], the tumor growth entry in series [1] (Group 2: ICA-1 80 mg/kg/day (20 μM) s.c. daily into and around tumor area, started immediately after glioma implantation) is “prevented tumor growth”; in series [1] (Group 3: ICA-1 80 mg/kg/day (20 μM) s.c. daily, started when tumor reached 100 mm^3 on day 5 post implantation) it was “prevented tumor growth”. For the same compound, in series [1] (Group 3: ICA-1 80 mg/kg/day, 4 days of treatment (day 5-day 9 post implantation)), the glioma volume entry is given as “reduced glioma volume”. Moreover, in series [1] (Group 3: after termination of treatment on day 9 post implantation), the “glioma size after the ICA-1 treatment was terminated” value is reported as “continued to reduce”. Besides, in series [1] (Group 3: end of study period, 8 days after termination of ICA-1 treatment (80 mg/kg/day, day 5-day 9)), the “glioma size relative to that of the control mice” value is listed as 53%. The values for the body weight entry in series [2] (setting [3]) and in series [2] (Group 3: ICA-1 80 mg/kg/day for 4 days (day 5-day 9 post implantation)) were “lost significant weight” and “did not exhibit significant weight loss”, respectively. Further, the survival / lethality entry in series [2] (setting [3]) is listed as “died seven days post ICA-1 treatment”.
